The text below walks through data of patent publication US5811512A, “Non-peptide peptidomimetics and related cyclic hexapeptides” (The Trustees of the University of Pennsylvania, priority 1996, dated 1998).

Where two headings read alike, the source gives them in different places.

Test [1] relates to somatostatin receptors of AtT-20 cells. To be noted: read-out: IC50 for binding somatostatin receptors of AtT-20 cells, cited from earlier work.
For test [2], the system named is SRIF receptor. Description: SRIF receptor affinity: displacement of 125I-CGP-23996 from AtT-20 cells. It is filed as binding. To be noted: displacement of 125I-CGP-23996, AtT-20 cells. The procedure:
The affinity of a variety of compounds for the SRIF receptor was determined by studying the displacement of ^125 I-CGP-23996 from AtT-20 cells using the method generally in accordance with Raynor and Reisine, Journal of Pharmacology and Experimental Therapeutics, 1989, 251;2, 510.

Test [3] addresses T1, human neurokinin-1 receptor (NK1R) (Homo sapiens, UniProt P25103).
T1 construct: the cDNA for the human NK1R was cloned into the expression vector pCDM9; expressed in transfected cells; host or cells: COS cells (transient, electroporation, vector pCDM9)
Description: Substance P receptor binding: 125I-substance P displacement from human NK1R expressed in COS cells. To be noted: 125I-SP, COS cells expressing human NK1R; read-out: IC50 (concentration required to inhibit the binding of substance P to the human neurokinin-1 receptor by 50%). The procedure: The affinity of a variety of compounds for the substance P receptor was determined employing the following procedure.
A. Receptor Expression in COS
To express the cloned human neurokinin-1 receptor (NK1R) transiently in COS, the cDNA for the human NK1R was cloned into the expression vector pCDM9 which was derived from pCDM8 (Invitrogen) by inserting the ampicillin resistance gene (nucleotide 1973 to 2964 from Bluescript SK+) into the Sac II site. Transfection of 20 μg of the plasmid DNA into 10 million COS cells was achieved by electroporation in 800 μl of the transfection buffer ([…], 1.2 mM MgCl2, 2.4 mM K2 HPO4, 0.6 mM KH2 PO4, 10 nM glucose, 10 mM HEPES pH 7.4) at 260V and 950 μF using the IBI Genezapper (IBI, New Haven, Conn.). The cells were incubated in 10% fetal calf serum, 2 mM glutamine, 100 U/ml penicillin-streptomycin, and 90% DMEM media (Gibco, Grand Island, N.Y.) in 5% CO2 at 37° C. for three days before the binding assay.
B. Assay Protocol using COS
The binding assay of human NK1R expressed in COS cells is based on the use of ^125 I-substance P (^125 I-SP, from DuPont, Boston, Mass.) as a radioactively labeled ligand which competes with unlabeled substance P or any other ligand for binding to the human NK1R. Monolayer cell cultures of COS were dissociated by the non-enzymatic solution (Specialty Media, Lavallette, N.J.) and resuspended in appropriate volume of the bind buffer (50 mM Tris pH 7.5, 5 mM MnCl2, 150 mM NaCl, 0.04 mg/ml bacitracin, 0.004 mg/ml leupeptin, 0.2 mg/ml BSA, 0.01 mM phosphoramidon) such that 200 μl of the cell suspension would give rise to about 10,000 cpm of specific ^125 I-SP binding (approximately 50,000 to 200,000 cells). In the binding assay, 200 μl of cells were added to a tube containing 20 μl of 1.5 to 2.5 nM of ^125 I-SP and 20 μl of unlabeled substance P or any other test compound. The tubes were incubated at 4° C. or at room temperature for 1 hour with gentle shaking. The bound radioactivity was separated from unbound radioactivity by GF/C filter (Brandel, Gaithersburg, Md.) which was pre-wetted with 0.1 polyethylenimine. The filter was washed with 3 ml of wash buffer (50 Tris pH 7.5, 5 mM MnCl21 150 mM NaCl) three times and its radioactivity was determined by gamma counter.
A variety of compounds were tested according to the COS cell procedure. The concentration of compound required to inhibit the binding of substance P to the human neurokinin-1 receptor by 50% was measured.

Test [4] has as its system Muscarinic cholingeric. It is filed as binding. The settings on record: 3H-QNB (0.1 nM).
For test [5], the system named is Opiate Receptor. As to the kind of experiment: Radioligand displacement from brain cells, opiate receptor. It is filed as binding. The settings on record: 3H-naloxone (0.5 nM).
The test system of test [6] is β-adrenergicreceptor. The settings on record: AtT-20 cells; cited from earlier work.
The subject of test [7] is β-adrenergic receptor. Description: Radioligand displacement from AtT-20 and brain cells, β-adrenergic receptor. It is filed as binding. To be noted: 125I-CYP (0.1 nM).
Test [8] deals with Dopamine Receptor. Description: Radioligand displacement from brain cells, dopamine receptor. It is filed as binding. The settings on record: 3H-spiperone (0.1 nM).

T1 sequence (P25103 whole entry): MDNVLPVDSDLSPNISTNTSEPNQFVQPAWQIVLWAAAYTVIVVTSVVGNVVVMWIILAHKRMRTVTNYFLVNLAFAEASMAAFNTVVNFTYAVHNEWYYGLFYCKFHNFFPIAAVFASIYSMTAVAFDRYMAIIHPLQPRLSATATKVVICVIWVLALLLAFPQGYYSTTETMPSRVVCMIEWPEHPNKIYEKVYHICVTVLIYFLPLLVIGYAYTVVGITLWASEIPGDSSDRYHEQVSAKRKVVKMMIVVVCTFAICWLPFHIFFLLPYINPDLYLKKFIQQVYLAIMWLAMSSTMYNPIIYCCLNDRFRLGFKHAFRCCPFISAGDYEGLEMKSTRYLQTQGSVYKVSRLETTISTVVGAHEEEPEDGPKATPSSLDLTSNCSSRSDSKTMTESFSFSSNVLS

Turning to “2-(1H-indol-3-yl)ethyl-6-O-(5-aminopentyl)-2,4-di-O-deoxy-β-D-glucopyranoside [Compound 2]”, the figures for the IC50 in test [1], in test [2] and in test [3] were about 1000 nM, 1300 nM and 180 nM, respectively.

For `NCCCCCOC[C@H]1O[C@@H](OCCc2c[nH]c3ccccc23)[C@H](OCc2ccccc2)[C@@H](OCc2ccccc2)[C@@H]1OCc1ccccc1` [Compound 1, 2-(1H-Indol-3yl)ethyl-6-O-(5-aminopentyl)-2,3,4-tri-O-benzyl-β-D-glucopyranoside], the “Binding Inhibition” value was 20% in test [4] (AtT-20); 83% in test [4] (Brain); 55% in test [5]; about 70% in test [7] (AtT-20); 45% in test [7] (Brain); 82% in test [8]. Further, the IC50 in test [1] was about 9500 nM; in test [2], 9500 nM; in test [3], 120 nM. Further, the “concentration required for β-adrenergic receptor binding relative to somatostatin receptor” value in test [6] is listed as “five fold higher concentration”.

In the case of `C[C@H](N)C(=O)NCC(=O)N[C@H]1CSSC[C@@H](C(=O)O)NC(=O)[C@H](CO)NC(=O)[C@H]([C@@H](C)O)NC(=O)[C@H](Cc2ccccc2)NC(=O)[C@H]([C@@H](C)O)NC(=O)[C@H](CCCCN)NC(=O)[C@H](Cc2c[nH]c3ccccc23)NC(=O)[C@H](Cc2ccccc2)NC(=O)[C@H](Cc2ccccc2)NC(=O)[C@H](CC(N)=O)NC(=O)[C@H](CCCCN)NC1=O` [SRIF, somatostatin, reference compound], the results for the IC50 in test [1] (also printed as 9.3×10^-9 M) and in test [2] were about 9.3 nM and 9.3 nM, respectively.
